Laboratory results: paper PMC5096027, “Naturally Inspired Peptide Leads: Alanine Scanning Reveals an Actin‐Targeting Thiazole Analogue of Bisebromoamide” (Chembiochem, 2016)
Numbered stars: 1 amine (or outer) side, 2 acyl side, 3 side chain; on linkers, the order of the positions; unused ones are H or OH. Square brackets hold non-standard residues; d marks the D form. Peptide text beside a SMILES is read from it. * marks the point of attachment. X1 = C[C@H]1C[C@@H](c2nc(C(=O)[*:2])cs2)N([*:1])C1; Pyrrolidine(2S-propanoyl) = CCC(=O)[C@@H]1CCCN1*; dNMeTyr(3-Br) = CN[C@H](Cc1ccc(O)c(Br)c1)C(=O)O; NMeF = CN[C@@H](Cc1ccccc1)C(=O)O; Piv = CC(C)(C)C(=O)*

Assays:
HCT116 cells [1] = test: IncuCyte ZOOM kinetic cell growth (confluence) assay; format: cell-based, human; settings: half-log dose response, kinetic readout every 3 h
Method: (§1) The effects of Bis1–6 on the growth of HCT116 cells (human colon cancer cell‐line) were assessed on an IncuCyte Zoom platform. HCT116 cells express an activating Ras mutation, and represent an aggressive and common form of human colon cancer.26 Dasatinib (dual Src‐Abl tyrosine kinase inhibitor) and DMSO (vehicle, 0.1 % v/v) were used as controls. […] The relative activity of all the analogues was further evaluated by testing each in an eight‐point half‐log dose–response assay (alamarBlue cell viability assay).
(§2) High‐content imaging methods: Kinetic cell growth and apoptosis assays were performed with an IncuCyte ZOOM live‐cell imaging system (Essen Bioscience, Ann Arbor, MI). Cytoskeletal morphology assays were performed on an ImageXpress Micro High‐Content Analysis System (Molecular Devices, Sunnyvale, CA).
Apoptosis assay: Cells were seeded in a 96‐well plate (5000 cells per well) and incubated for 24 h before treatment. […] Apoptosis was detected with the cell‐permeable caspase biosensor NucView 488 (Biotium, Hayward, CA), which was added (1 μM) at the same time as compound. IncuCyte imaging software automatically quantifies cell density and NucView/Caspase positive objects at time points following compound addition. This provided a kinetic readout of cell growth and apoptosis induction in cells after addition of each analogue. […]

HCT116 cells [2] = test: Cytoskeletal morphology assay (ImageXpress high-content imaging, F-actin/DAPI); format: cell-based, human; settings: 1 μM, 48 h, F-actin (phalloidin) and DAPI staining
Source text: Perhaps most striking in terms of identifying a mechanism for the cytotoxicity were the morphological images collected on an ImageXpress high content microscope (Figure 2). […] The morphological changes induced by Bis1 and Bis2 are in good accord with those previously reported for the parent compound (BBA) in HeLa cells,8 and indicate that the switch from thiazoline to thiazole to facilitate the generation of these Tz‐BBA analogues by SPPS has not impaired activity.
Figure 2 HCT116 cytoskeletal morphology after treatment with 1 μM Bis1–6 for 48 h. Cells were permeabilised and fixed in paraformaldehyde prior to staining nuclei (DAPI, blue) and filamentous‐actin fibres (F‐actin; phalloidin conjugated to Alexa Fluor […], green). Images were acquired in an automated ImageXpress microXL high‐content imaging platform (Molecular Devices) with a 20× objective; images show HCT116 cell morphology for DMSO (control) and each treatment group: A) DMSO; B) cytochalasin D; C) Bis1; D) Bis2; E) Bis3 (representative also for Bis4); F) Bis 6 (representative also for Bis5).
as §2
Cytoskeletal morphology assays: Cells were seeded in a 96‐well plates (5000 cells per well) and incubated for 24 h before treatment. The medium was then replaced with fresh medium containing Bis1–6 as eight‐point half‐log doses and incubated for 48 h. Control cells were incubated with DMSO (0.1 % v/v). All images were acquired on an automated ImageXpress Micro XL high‐content imaging platform (Molecular Devices) with a ×20 Plan Fluor ELWD Ph1 DM objective (Nikon) and a 16‐bit camera (binning resolution of 1). Four separate images per well were acquired by using laser‐based autofocus parameters optimised for cell plates and cell type. All immunostaining procedures were performed at room temperature in 96‐well plates (100 μL unless otherwise stated). Cells were fixed by addition of paraformaldehyde (8 % in PBS; final concentration 4 %) and incubated for 20 min. Cells were washed three times with PBS then incubated with a mixture of phalloidin conjugated to Alexa Fluor […] (Molecular Probes (Thermo Fisher) A12379; diluted 1:500) and 4′,6‐diamidino‐2‐phenylindole (DAPI; Sigma–Aldrich D8417) for 45 min in the absence of light. Cells were washed three times with PBS before imaging. Representative images are in Figure 2.

IRS‐1 = test: Reverse phase protein array (RPPA) profiling, IRS-1 total protein expression; format: cell-based, human; settings: HCT116 cell lysates, 3.0–0.03 μM, 24 h exposure, normalised to DMSO
Source text: (§3) The only clearly discernible inhibition of pathway signalling was for protein kinase C (PKC); there was discernible reduction in total protein expression of the insulin receptor substrate protein IRS‐1 (Figure S2).
(§4) Reverse phase protein array methods: The abundance of total protein and phosphorylated protein epitopes was quantified by using a Zeptosens reverse phase protein microarray platform (Bayer Technology Services, Leverkusen, Germany) as previously described.30 Briefly, HCT116 cells were seeded (4×10^5 cells per well) in six‐well plates. Cells were pre‐incubated in treatment‐free medium for 48 h prior to addition of Bis1–3 at six‐point half‐log doses (3.0–0.03 μM) and incubation for 30 min, 3 h and 24 h. Control samples were treated with medium containing DMSO (0.1 % v/v). The medium was then removed, and the cells were lysed by incubation with CLB1 buffer (Zeptosens) for 30 min. Cell lysates were normalised to a uniform protein concentration with CSBL1 spotting buffer (Zeptosens) prior to preparing a final fourfold concentration series of ([…] mL^−1). The concentration series of each sample was printed onto ZeptoChip protein microarray chips (Zeptosens) under controlled conditions (50 % humidity, 14 °C) by using a Nano‐Plotter NP21/E non‐contact printer (GeSIM, Radeberg, Germany). Single droplets (400 pL) were deposited onto the chips. A reference grid (four columns, 22 rows) of Alexa Fluor 647‐conjugated BSA (Invitrogen) was spotted onto each sub‐array; samples were spotted between reference columns. […] Microarray images representing the longest exposure without saturation of the fluorescence signal were automatically selected for analysis in ZeptoView 3.1 software. A weighted linear‐fit through the fourfold concentration series was used to calculate relative fluorescence intensity (RFI). […]
(§5) Figure S2. […] The mechanism-of-action of Tz-BBA analogues Bis1-3 at the post translational pathway level was evaluated against a panel of 62 protein and phospho-protein analytes by reverse phase protein array (RPPA). […]

protein kinase C (PKC) = test: Reverse phase protein array (RPPA) profiling, PKC signalling; format: cell-based, human; settings: HCT116 cell lysates, 3.0–0.03 μM, 24 h exposure, normalised to DMSO
Source text: as §3, §4, §5

HCT116 cells [3] = test: alamarBlue cell viability assay; format: cell-based, human; settings: 72 h incubation, eight-point half-log doses 0.003–10 μM, alamarBlue fluorescence, relative to DMSO control, n=3
Method: as §1
Figure 1 HCT116 cell viability. Dose–response curves determined by an alamarBlue cell viability assay after incubation with Bis1–6 (0.003–10 μM) for 72 h. Conversion of the alamarBlue reagent to the activated fluorescent resorufin cell viability indicator was calculated for DMSO (vehicle) and compound‐treated samples. Viability is expressed relative to control (DMSO). Dose–response plots are mean±SD (n=3).
Cell viability assay: HCT116 cells were seeded in a 96‐well plate (5000 cells per well) and incubated for 48 h before treatment. The medium (DMEM with 10 % foetal calf serum and 2 mM glutamine) was replaced with fresh medium containing each of Bis1–6 as eight‐point half‐log doses, and incubated for 3 days. alamarBlue (Invitrogen) cell viability reagent (10 % v/v) was added, and the plate was incubated for 1 h. Fluorescence was detected with an EnVision multilabel reader (λ ex=540 nm, λ em=590 nm; PerkinElmer). All data were normalised to DMSO‐treated cells, and curves were fitted in GraphPad Prism with a sigmoidal variable‐slope curve.

ERK = test system: ERK; set-up: method as in PMID 19803465; settings: NRK cells; cited from earlier work
[4] = test system: panel of 39 human cancer cell lines; set-up: method as in PMID 19803465; settings: cited from earlier work
actin‐filament = test system: actin‐filament; set-up: method as in PMID 21322638; settings: cited from earlier work
HeLa S3 cells = test system: HeLa S3 cells; set-up: method as in PMID 19803465; settings: cited from earlier work
ERK and Akt = test system: ERK and Akt; set-up: method as in PMID 24133625; settings: two renal cancer cell lines; cited from earlier work

| Molecule | repression of cell growth (confluence) (HCT116 cells [1]) | cytoskeletal morphological changes relative to DMSO control (HCT116 cells [2]) | total protein expression of IRS-1 (RPPA) (IRS‐1) | PKC pathway signalling (RPPA) (protein kinase C (PKC)) | EC50 (HCT116 cells [3]) [nM] | phosphorylation of ERK (ERK) | GI50 [4] [nM] | action on actin filaments (actin‐filament) | IC50 against HeLa S3 cells (HeLa S3 cells) [µg/mL] | phosphorylation of both ERK and Akt (ERK and Akt) |
| --- | --- | --- | --- | --- | --- | --- | --- | --- | --- | --- |
| CCC(=O)[C@@H]1CCCN1C(=O)[C@H](Cc1ccccc1)N(C)C(=O)[C@@H](CC(C)C)NC(=O)c1csc([C@@H]2C[C@H](C)CN2C(=O)[C@@H](Cc2ccc(O)c(Br)c2)N(C)C(=O)[C@H](C)NC(=O)C(C)(C)C)n1 [Bis1, thiazole‐bisebromoamide] (Piv-A[dNMeTyr(3-Br)][X1][dL][NMeF]-{Pyrrolidine(2S-propanoyl)}) | most active | clear disruption and aggregation of F‐actin filaments together with reduced cell‐substrate adhesion | reduced expression of IRS‐1 | reduced activity of PKC |  |  |  |  |  |  |
| CCC(=O)[C@@H]1CCCN1C(=O)[C@H](C)NC(=O)[C@@H](CC(C)C)NC(=O)c1csc([C@@H]2C[C@H](C)CN2C(=O)[C@@H](Cc2ccc(O)c(Br)c2)N(C)C(=O)[C@H](C)NC(=O)C(C)(C)C)n1 [Bis3] (Piv-A[dNMeTyr(3-Br)][X1][dL]A-{Pyrrolidine(2S-propanoyl)}) |  | more elongated cells with prominent F‐actin filaments and promotion of cell‐substrate adhesion | more affected by Bis1 and Bis2 than by Bis3 | more affected by Bis1 and Bis2 than by Bis3 | 483 |  |  |  |  |  |
| CC(C)C[C@@H](NC(=O)c1csc([C@@H]2C[C@H](C)CN2C(=O)[C@@H](Cc2ccc(O)c(Br)c2)N(C)C(=O)[C@H](C)NC(=O)C(C)(C)C)n1)C(=O)N(C)[C@@H](Cc1ccccc1)C(=O)N[C@@H](C)C(N)=O [Bis2] (Piv-A[dNMeTyr(3-Br)][X1][dL][NMeF]A-NH2) |  | clear disruption and aggregation of F‐actin filaments together with reduced cell‐substrate adhesion | reduced expression of IRS‐1 | reduced activity of PKC | 71 |  |  |  |  |  |
| bisebromoamide [BBA] |  |  |  |  |  | inhibited | 40 | actin‐filament stabiliser | 0.04 | inhibited |
| CCC(=O)[C@@H]1CCCN1C(=O)[C@H](Cc1ccccc1)N(C)C(=O)[C@H](C)NC(=O)c1csc([C@@H]2C[C@H](C)CN2C(=O)[C@@H](Cc2ccc(O)c(Br)c2)N(C)C(=O)[C@H](C)NC(=O)C(C)(C)C)n1 [Bis4] (Piv-A[dNMeTyr(3-Br)][X1]A[NMeF]-{Pyrrolidine(2S-propanoyl)}) |  | more elongated cells with prominent F‐actin filaments and promotion of cell‐substrate adhesion |  |  | 178 |  |  |  |  |  |
